Assay in all cases: growth of human tumour cells (NCI), 48 h
The test system of assay [1] is OVCAR-5 ovarian.
Assay [2] concerns CAKI-1 renal.
Assay [3] relates to SNB-19 CNS.
For assay [4], the system named is MALME-3M melanoma.
Assay [5] relates to EKVX NSCLC.
The test system of assay [6] is HOP-62 NSCLC.
Assay [7] has as its system LOX IMVI melanoma.
In assay [8] the test system is NCI-H226 lung.
Assay [9] has as its system DU-145 prostate.

The structures appear in SMILES notation. Where “and” joins values, the source holds several entries; their conditions need not be identical. Equal values may be shown once.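 Cultured in 96-well plates, cells were exposed to test compound for 48 hours across five concentrations. GI50 = concentration required for 50% inhibition of growth. TGI is the concentration that stops growth completely.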

Consider `Cc1nc2c(ccc3ncccc32)[nH]1`, for which the TGI in assay [1], in assay [2], in assay [3], in assay [4], in [5] and in assay [6] was over 100 µM each time. Further, the TGI in assay [7] was over 100 µM.
As for `Cc1c(C(=O)C/C(=N/NC(=O)c2ccccc2O)C(=O)Nc2ccccc2C(C)C)[n+](=O)c2ccccc2n1[O-]`, the TGI in assay [1], in assay [2], in assay [3], in assay [4], in assay [8] and in assay [5] was over 100 µM in each case. The TGI in assay [6] and in assay [7] was over 100 µM in each case.
On to `Cc1ccc(Cl)c2c(N=Nc3ccccc3[N+](=O)[O-])c(O)[nH]c12`, for which the TGI in assay [1], in assay [2], in assay [3], in assay [4], in assay [8] and in assay [5] was over 100 µM each time. The TGI in [6], in assay [9] and in assay [7] was over 100 µM each time.
As to `COC1/C=C/OC2(C)Oc3c(C)c(O)c4c(O)c(c(/C=N/Nc5ccc([N+](=O)[O-])cc5[N+](=O)[O-])c(O)c4c3C2=O)NC(=O)C(C)=C/C=C/C(C)C(O)C(C)C(O)C(C)C(OC(C)=O)C1C` (centres undefined), the GI50 is 3.59 µM in assay [1]; 2900 nM in [2]; 3.92 µM in [3]; 1210 nM in assay [4]; 1350 nM in assay [8]; 4.75 µM in assay [5]. In addition, the values for the GI50 in assay [6], in [9] and in assay [7] were 2470 nM, 2550 nM and 1030 nM, respectively. Further, the TGI in assay [1] is 11.6 µM; in assay [2] it was over 50 µM; in [3], 18.1 µM; in assay [4], 6.13 µM; in assay [8] it was 3.89 µM; in assay [5], over 50 µM. The TGI in assay [6] was 25.5 µM; in assay [9] it was 9.32 µM; in assay [7], 2.32 µM.
As for `CCCCCCCCCCCC(=O)OCCOCCOCCOCCOCCOCc1ccccc1`, the TGI in assay [1], in assay [2], in [3], in [4], in assay [8] and in assay [5] was over 100 µM in each case. In addition, the TGI in assay [6] and in [7] was over 100 µM in each case.
With `CC1(C(=O)O)CCC[C@@]2(C)C1CC[C@@]1(C)c3cocc3CCC21` (some centres undefined), the TGI in assay [1], in assay [2], in assay [3], in assay [4], in assay [8] and in assay [5] was over 100 µM throughout. The TGI in assay [6] and in [7] was over 100 µM in each case.
Regarding `O=C(CCc1nc(=S)[nH][nH]1)Nc1cc(Cl)c(Cl)cc1Cl`, the TGI in assay [1], in [2], in assay [3], in assay [4], in assay [8] and in [6] was over 100 µM throughout. In assay [7], this compound returned a TGI of over 100 µM.
For `Cc1ccc(S(=O)(=O)OC[C@@H]2CO2)cc1`, the TGI in assay [1], in assay [2], in [3], in assay [4], in assay [8] and in assay [5] was over 100 µM each time. Also, the TGI in assay [6] and in [7] was over 100 µM in each case.
With `O=C(O)CCNCCCNCCC(=O)O`, the TGI in [1], in [2], in assay [3], in assay [4], in assay [8] and in assay [5] was over 100 µM each time. The TGI in assay [6] and in assay [7] was over 100 µM each time.
Consider `CCC[CH2][Sn]([CH2]CCC)([S]c1cccc2cccnc12)[S]c1cccc2cccnc12`, for which the GI50 in assay [2] was 123 nM; in assay [3], 0.373 µM; in assay [5] it was 0.336 µM; in assay [6] it was 355 nM; in assay [7] it was 175 nM. In addition, the TGI in [2] stood at 0.342 µM; in assay [3], 1.39 µM; in [5], 1.45 µM; in assay [6] it was 2.79 µM; in assay [7], 0.359 µM.
`O=C(O)CCC(NC(=O)c1ccc(Nc2nc3ccccc3nc2-c2cccs2)cc1)C(=O)O` (centres undefined): the TGI in assay [1], in assay [2], in assay [3], in [4], in [8] and in assay [5] was over 100 µM each time. For the same compound, the TGI in [6] and in assay [7] was over 100 µM throughout.
With `CCOC(=O)CCC1(C(=O)OCC)CCCCC1=O` (centres undefined), the TGI in assay [1], in [3], in assay [4], in [5], in assay [6] and in assay [7] was over 100 µM in each case.
In the case of `CNC(=S)OCCC(C)CCCC(C)C` (centres undefined), the TGI in [1] amounted to 23.9 µM; in assay [2], 31.7 µM; in assay [3], 33.4 µM; in [4] it was 36.8 µM; in assay [5], 31.7 µM; in assay [6] it was 34.1 µM. Moreover, the TGI in assay [7] was 26.2 µM.
Regarding `CCCC1C(=O)CCc2c(OC)ccc(OC)c21` (centres undefined), the TGI in [1], in assay [2], in [3], in [4], in [5] and in assay [6] was over 100 µM throughout. This compound displayed a TGI in [7] of over 100 µM.
Take `CCCCCCCCCCCCCC(=O)OC(/C=C/C(C)C)C(O)C(O)C(OC)C(=O)NC1CCCCN(C)C1=O` (centres undefined): the GI50 is over 49 µM in assay [1]; over 49 µM in assay [3]; 5.01 µM and 15.7 µM in assay [5]. In addition, the TGI in assay [1] is 10.8 µM and > 49 µM; in assay [2] it was 7.51 µM; in [3] it was 6.46 µM and > 49 µM; in [4], 7.93 µM and > 49 µM; in assay [5], 17.3 µM and > 49 µM; in assay [6], 6.54 µM and > 49 µM. In assay [7], the TGI was 6.53 µM and > 49 µM.

The values above are taken from PubChem BioAssay (NCI).
